Reference: patent US8889708B2 (Boehringer Ingelheim International GmbH, priority 2013, dated 2014)

Assays:
[1] = test system: Neutrophil elastase activity in U937 cells; experiment: Neutrophil elastase activity in U937 cytosolic lysate after incubation with test compound; assay type: cell-based; conditions: Homo sapiens, U-937, U937 cells incubated 48 hours with compound, read-out: Reduction of NE-activity in U937 cells IC50
Procedure: Determination of Neutrophil Elastase Activity in U937 Cytosolic Lysate Preparation after Incubation with Test Compound
Optiplate 384F were purchased from PerkinElmer (Prod. No. #6007270). 24well Nunclon cell culture plates (No. 142475) and 96well plates (No. 267245) were from Nunc. Dimethylsulfoxid (DMSO) was from Sigma (Prod. No. D8418). Nonidet-P40 (NP40) was from USBiological (Prod. No. N3500)
Substrate, specific for Neutrophil elastase, was from Bachem (MeOSuc-Ala-Ala-Pro-Val-AMC; Prod. No. I-1270).
Human neutrophil elastase was from Calbiochem (Prod. No. 324681)
Tris-buffer (100 mM Tris; 1M NaCL; pH 7.5)
Tris-buffer+HSA 0.1%; Human Serum Albumin from Calbiochem (Cat#. 126658)
Serine-protease buffer (20 mM Tris; 100 mM NaCL; pH 7.5)+0.1% HSA
Serine protease lysis buffer: 20 mM Tris-HCL; 100 mM NaCl pH 7.5; +0.2% Nonidet-P40;
PBS: phosphate buffered saline, without Ca and Mg, from Gibco
U937 from ECACC (Cat. No. 85011440) cultured in suspension at 37° C. and 5% CO2.
Cell density: 0.2-1 Mio. Cells/ml.
Medium: RPMI1640 GlutaMAX (No. 61870) with 10% FCS from Gibco
Cell Seeding and Treatment:
Compounds in 100% DMSO were diluted in Medium (—FCS) with 10% DMSO and further diluted according to the experiment planned.
20 μl of the compound solution was transferred in the respective wells of the 24 well plate and diluted with 2 ml cell suspension/well containing […] (final concentration of DMSO=0.1%). Compound dilution factor=100
Compounds (up to 7 concentrations) were tested in triplicates with 3 wells for the DMSO 0.1% control, incubatet for 48 hours without medium change at 37° C., 5% CO2 and 95% relative humidity.
Cell Harvesting and Cell Lysate:
Transfer the cell suspension in 2.2 ml Eppendorf cups. Separate cells from medium by centrifugation (400×g; 5 min; RT); discard the supernatant. Resuspend in 1 ml PBS; centrifugation (400×g; 5 min; RT); wash cells twice with PBS. Add 100 μl Serin lysis buffer (ice cold) to the cell pellet; resuspend the pellet and store on ice for 15 minutes. Remove debris by centrifugation at 15000×g for 10 min at 4° C. Transfer 80-100 μl lysate supernatant in 96well plate and store immediately at −80° C.
Neutrophil Elastase Activity Assay:
Frozen lysates were thawn at 37° C. for 10 minutes and stored on ice. Protein content was determined with Bradford protein assay. Lysates were diluted to 0.2-0.5 mg/ml protein in serine protease buffer+HSA.
Standard: NE ([…] stocksolution in Tris-buffer; stored at −80° C.) was diluted in Tris-buffer+HSA to 750 ng/ml, and further serially diluted 1:2 for the standard curve.
Buffer, blank, standard and lysate samples were transferred into 384 well plate
Blank: 5 μl Tris-buffer+10 μl Tris-buffer+HSA+5 μl Substrate
Standard: 5 μl Tris-buffer+10 μl NE (diff.conc.)+5 μl Substrate
Lysate: 5 μl Tris-buffer+10 μl Lysat+5 μl Substrate
The increase in fluorescence (Ex360 nm/Em 460 nm) is determined over 30 minutes with a Molecular Device Spectramax M5 Fluorescence Reader. Kinetic Reduction (Vmax units/sec); 4 vmax points. The amount of neutrophil elastase (ng/ml) is calculated using the standard curve and the Spectramax software. The result is interpolated to ng/mg lysate protein using excel formula functions. Percent inhibition in the compound-treated lysate samples is calculated relative to the DMSO-treated control-sample (100−(compound-sample*100)/control-sample)
IC50 is calculated using Graphpad Prism; nonlinear fitting (log(inhibitor) vs. response—Variable slope).

recombinant human DPPI = recombinant human DPPI (Homo sapiens (Human), UniProt P53634); experiment: Inhibition of Human DPPI (Cathepsin C); assay type: biochemical; conditions: substrate Gly-Arg-AMC, 30 min room temperature
recombinant human DPPI, sequence (P53634 231-394): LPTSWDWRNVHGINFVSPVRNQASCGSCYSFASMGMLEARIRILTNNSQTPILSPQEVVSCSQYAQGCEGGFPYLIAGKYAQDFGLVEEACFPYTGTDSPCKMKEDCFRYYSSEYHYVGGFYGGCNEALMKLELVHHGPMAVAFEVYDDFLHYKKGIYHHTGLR
recombinant human DPPI, sequence (P53634 395-463): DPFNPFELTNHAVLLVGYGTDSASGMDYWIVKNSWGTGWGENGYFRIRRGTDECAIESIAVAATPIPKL
recombinant human DPPI, sequence (P53634 25-134): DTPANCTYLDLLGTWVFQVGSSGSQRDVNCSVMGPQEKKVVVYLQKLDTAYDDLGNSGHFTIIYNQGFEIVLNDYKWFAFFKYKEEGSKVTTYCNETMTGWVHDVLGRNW
Source text: Inhibition of Human DPPI (Cathepsin C)
Materials: Microtiterplates (Optiplate-384 F) were purchased from PerkinElmer (Prod. No. 6007270). The substrate Gly-Arg-AMC was from Biotrend (Prod.-No. 808756 Custom peptide). Bovine serum albumin (BSA; Prod. No. A3059) and Dithiothreitol (DTT; Prod. No D0632) were from Sigma. TagZyme buffer was from Riedel-de-Haen (Prod.-No. 04269), NaCl was from Merck (Prod.-No. 1.06404.1000) and morpholinoethane sulfonic acid (MES), was from Serva (Prod.-No. 29834). The DPP1 inhibitor Gly-Phe-DMK was purchased from MP Biomedicals (Prod.-No. 03DK00625). The recombinant human DPPI was purchased from Prozymex. All other materials were of highest grade commercially available.
The following buffers were used: MES buffer: 25 mM MES, 50 mM NaCl, 5 mM DTT, adjusted to pH 6.0, containing 0.1% BSA; TAGZyme Buffer: 20 mM NaH2PO4, 150 mM NaCl adjusted to pH 6.0 with HCl
The recombinant human DPPI was diluted in TAGZyme buffer to 1 U/ml (38.1 μg/ml, respectively), and then activated by mixing in a 1:2 ratio with a Cysteamine aqueous solution (2 mM) and incubating for 5 min at room temperature.
Five uL test compound (final concentration 0.1 nM to 100 μM) in aqua bidest (containing 4% DMSO, final DMSO concentration 1%) were mixed with 10 μL of DPPI in MES buffer (final concentration 0.0125 ng/μL) and incubated for 10 min. Then, 5 μL of substrate in MES buffer (final concentration 50 μM) were added. The microtiter plates were then incubated at room temperature for 30 min. Then, the reaction was stopped by adding 10 μL of Gly-Phe-DMK in MES-buffer (final concentration 1 μM). The fluorescence in the wells was determined using a Molecular Devices SpectraMax M5 Fluorescence Reader (Ex 360 nm, Em 460 nm) or an Envision Fluorescence Reader (Ex 355 nm, Em 460 nm).
Each assay microtiter plate contained wells with vehicle controls (1% DMSO in bidest+0.075% BSA) as reference for non-inhibited enzyme activity (100% Ctl; high values) and wells with inhibitor (Gly-Phe-DMK, in bidest+1% DMSO+0.075% BSA, final concentration 1 μM) as controls for background fluorescence (0% Ctl; low values).
The analysis of the data was performed by calculating the percentage of fluorescence in the presence of test compound in comparison to the fluorescence of the vehicle control after subtracting the background fluorescence using the following formula: (RFU(sample)−RFU(background))*100/(RFU(control)−RFU(background))
Data from these calculations were used to generate IC50 values for inhibition of DPPI, respectively.

[2] = Metabolic stability with human liver microsomes; assay type: in vitro ADME; conditions: pH 7.6; pooled human liver microsomes, 37° C., 1 μM test compound, 1 mg/ml protein, NADPH; read-out: In vitro stability in human liver microsome incubations t½
Procedure: Determination of Metabolic Stability with Human Liver Microsomes
The metabolic degradation of the test compound is assayed at 37° C. with pooled human liver microsomes. The final incubation volume of 100 μl per time point contains TRIS buffer pH 7.6 (0.1 M), magnesium chloride (5 mM), microsomal protein (1 mg/ml) and the test compound at a final concentration of 1 μM. Following a short preincubation period at 37° C., the reactions are initiated by addition of beta-nicotinamide adenine dinucleotide phosphate, reduced form (NADPH, 1 mM) and terminated by transferring an aliquot into acetonitrile after different time points. Additionally, the NADPH-independent degradation is monitored in incubations without NADPH, terminated at the last time point. The [%] remaining test compound after NADPH independent incubation is reflected by the parameter c(control) (metabolic stability). The quenched incubations are pelleted by centrifugation (10,000 g, 5 min). An aliquot of the supernatant is assayed by LC-MS/MS for the amount of parent compound.
The half-life (t½ INVITRO) is determined by the slope of the semilogarithmic plot of the concentration-time profile. The intrinsic clearance (CL_[…]) is calculated by considering the amount of protein in the incubation: CL_[…][μl/min/mg protein]=(ln 2/(half-life[min]*protein content[mg/ml]))*1,000.

[3] = target: recombinant human Cathepsin K (Homo sapiens (Human), UniProt P43235); experiment: Inhibition of Human Cathepsin K; assay type: biochemical; conditions: substrate Z-Gly-Pro-Arg-AMC, 60 min room temperature
recombinant human Cathepsin K, sequence (P43235 115-329): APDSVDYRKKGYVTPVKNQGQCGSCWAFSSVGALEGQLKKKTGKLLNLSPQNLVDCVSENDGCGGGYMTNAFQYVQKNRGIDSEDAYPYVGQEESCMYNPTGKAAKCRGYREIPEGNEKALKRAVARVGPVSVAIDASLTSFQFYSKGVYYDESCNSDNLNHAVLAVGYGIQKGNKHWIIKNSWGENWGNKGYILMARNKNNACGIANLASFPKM
Source text: Inhibition of Human Cathepsin K Materials: Microtiterplates (Optiplate-384 F were purchased from PerkinElmer (Prod. No. 6007270). The substrate Z-Gly-Pro-Arg-AMC was from Biomol (Prod.-No. P-142). L-Cysteine (Prod. No. 168149) was from Sigma. Sodium actetate was from Merck (Prod.-No. 6268.0250), EDTA was from Fluka (Prod.-No. 03680). The inhibitor E-64 was purchased from Sigma (Prod.-No. E3132). The recombinant human Cathepsin K proenzyme was purchased from Biomol (Prod. No. SE-367). All other materials were of highest grade commercially available.
The following buffers were used: Activation buffer: 32.5 mM sodium acetate, adjusted to pH 3.5 with HCl; Assay buffer: 150 mM sodium acetate, 4 mM EDTA, 20 mM L-Cysteine, adjusted to pH 5.5 with HCl,
To activate the proenzyme, 5 μl procathepsin K were mixed with 1 ul activation buffer, and incubated at room temperature for 30 min.
5 μL test compound (final concentration 0.1 nM to 100 μM) in aqua bidest (containing 4% DMSO, final DMSO concentration 1%) were mixed with 10 uL of Cathepsin K in assay buffer (final concentration 2 ng/μL) and incubated for 10 min. Then 5 μL of substrate in assay buffer (final concentration 12.5 μM) were added. The plates were then incubated at room temperature for 60 min. Then, the reaction was stopped by adding 10 μL of E64 in assay buffer (final concentration 1 μM). The fluorescence in the wells was determined using a Molecular Devices SpectraMax M5 Fluorescence Reader (Ex 360 nm, Em 460 nm).
Each assay microtiter plate contains wells with vehicle controls (1% DMSO in bidest) as reference for non-inhibited enzyme activity (100% Ctl; high values) and wells with inhibitor (E64 in bidest+1% DMSO, final concentration 1 μM) as controls for background fluorescence (0% Ctl; low values). The analysis of the data was performed by calculating the percentage of fluorescence in the presence of test compound in comparison to the fluorescence of the vehicle control after subtracting the background fluorescence: (RFU(sample)−RFU(background))*100/(RFU(control)−RFU(background))
Data from these calculations were used to generate IC50 values for inhibition of Cathepsin K, respectively.

IC50 [1] [nM]	IC50 (recombinant human DPPI) [nM]	half-life at 1 μM [2] [h]	IC50 [3] [nM]	Structure (SMILES)
114	11.2	> 2.17		N#C[C@H](Cc1ccc(-c2cccc(C(N)=O)c2)cc1F)NC(=O)C12CCC(CC1)CN2 [Example 24]
	6.7	0.417		CN(C)S(=O)(=O)c1cccc(-c2ccc(C[C@@H](C#N)NC(=O)C34CCC(CC3)CN4)c(F)c2)c1 [Example 30]
	40.7			CN1C(=O)C(C)(C)c2ccc(-c3ccc(C[C@@H](C#N)NC(=O)C45CCC(CC4)CN5)c(F)c3)cc21 [Example 25]
58	20.2	> 2.17		N#C[C@H](Cc1ccc(-c2cnn(CC3CCOCC3)c2)cc1F)NC(=O)C12CCC(CC1)CN2 [Example 29]
	38.1			CN1Cc2ccc(-c3ccc(C[C@@H](C#N)NC(=O)C45CCC(CC4)CN5)c(F)c3)cc2C1 [Example 19]

Continued, compound first:

Structure (SMILES)	IC50 [1] [nM]	IC50 (recombinant human DPPI) [nM]	half-life at 1 μM [2] [h]	IC50 [3] [nM]
CN1C(=O)Cc2ccc(-c3ccc(C[C@@H](C#N)NC(=O)[C@]45CC[C@@H](CN4)C5)cc3)cc21 [Example 7]		204		
CS(=O)(=O)c1cc(-c2ccc(C[C@@H](C#N)NC(=O)[C@@]34CCO[C@@H](CN3)C4)cc2)ccc1C#N [Example 6]		202		
CN1C(=O)Cc2ccc(-c3ccc(C[C@@H](C#N)NC(=O)[C@@]45CC[C@H](CN4)C5)cc3)cc21 [Example 8]		221		
CS(=O)(=O)c1cc(-c2ccc(C[C@@H](C#N)NC(=O)[C@@]34CC[C@H](CN3)C4)cc2)ccc1C#N [Example 10]		283		
CS(=O)(=O)c1ccc(-c2ccc(C[C@@H](C#N)NC(=O)C34CCC(CC3)CN4)c(F)c2)cc1C#N [Example 18]	74	15	> 2.17	
N#Cc1ccc(-c2ccc(C[C@@H](C#N)NC(=O)C34CCC(CC3)N4)cc2)cc1F [Example 11]		284	> 2.17	
CS(=O)(=O)c1cc(-c2ccc(C[C@@H](C#N)NC(=O)C34CCC(CC3)CN4)c(F)c2)ccc1C#N [Example 1]	64		> 2.17	
CN1C(=O)Cc2ccc(-c3ccc(C[C@@H](C#N)NC(=O)[C@]45CCC[C@@H](CN4)C5)cc3)cc21 [Example 12]		428		
CS(=O)(=O)c1cc(-c2ccc(C[C@@H](C#N)NC(=O)[C@]34CC[C@@H](CN3)C4)cc2)ccc1C#N [Example 14]		650		
CS(=O)(=O)c1cc(-c2ccc(C[C@@H](C#N)NC(=O)[C@]34CCC[C@@H](CN3)C4)cc2)ccc1C#N [Example 16]		1220		
CN1C(=O)Cc2ccc(-c3ccc(C[C@@H](C#N)NC(=O)[C@@]45CCO[C@@H](CN4)C5)cc3)cc21 [Example 5]		50.3		> 30000
CN1C(=O)Cc2ccc(-c3ccc(C[C@@H](C#N)NC(=O)C45CCOC(CCN4)C5)cc3)cc21 (stereo partly drawn) [Example 9]		228		
